Data as given in paper PMC10336670 (Saudi Pharmaceutical Journal : SPJ, 2023).

Target: urease enzyme (Canavalia ensiformis, UniProt P07374)
Type: biochemical

urease enzyme, sequence (P07374 whole entry, looked up): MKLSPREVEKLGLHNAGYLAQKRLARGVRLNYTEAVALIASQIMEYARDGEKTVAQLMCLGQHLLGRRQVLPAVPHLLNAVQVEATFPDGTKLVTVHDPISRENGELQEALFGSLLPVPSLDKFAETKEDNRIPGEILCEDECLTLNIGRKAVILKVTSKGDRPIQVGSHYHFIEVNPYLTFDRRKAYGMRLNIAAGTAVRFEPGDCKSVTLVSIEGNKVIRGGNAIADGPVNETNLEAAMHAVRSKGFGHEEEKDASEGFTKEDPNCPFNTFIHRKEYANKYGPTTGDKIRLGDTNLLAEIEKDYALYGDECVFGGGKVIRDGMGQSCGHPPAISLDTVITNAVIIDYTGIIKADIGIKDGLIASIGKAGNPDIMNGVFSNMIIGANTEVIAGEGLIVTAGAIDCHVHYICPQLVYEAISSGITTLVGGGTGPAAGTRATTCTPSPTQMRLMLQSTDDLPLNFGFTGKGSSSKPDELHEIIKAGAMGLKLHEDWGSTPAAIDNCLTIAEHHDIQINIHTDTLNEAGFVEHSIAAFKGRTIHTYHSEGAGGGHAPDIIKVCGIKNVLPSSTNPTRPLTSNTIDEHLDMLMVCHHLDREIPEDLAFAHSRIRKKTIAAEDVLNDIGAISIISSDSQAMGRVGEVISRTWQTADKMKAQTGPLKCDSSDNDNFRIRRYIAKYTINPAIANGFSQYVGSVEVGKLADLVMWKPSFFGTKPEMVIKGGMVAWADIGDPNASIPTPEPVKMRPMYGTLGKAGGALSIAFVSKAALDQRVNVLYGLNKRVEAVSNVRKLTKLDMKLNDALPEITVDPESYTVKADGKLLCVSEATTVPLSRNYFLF

SMILES | potency as urease inhibitor compared to the standard drug thiourea
CN(C)c1ccc(-c2coc(N/N=C\c3cnc4ccc(F)cn34)n2)cc1 [4 l, (Z)-4-(2-(2-((6-fluoroimidazo[1,2-a]pyridin-3-yl)methylene)hydrazineyl)oxazol-4-yl)-N,N-dimethylaniline] | three-fold least potency
Fc1ccc2ncc(/C=N\Nc3nc(-c4ccc(-c5ccccc5)cc4)co3)n2c1 [4c, (Z)-4-([1,1'-biphenyl]-4-yl)-2-(2-((6-fluoroimidazo[1,2-a]pyridin-3-yl)methylene)hydrazineyl)oxazole] | three-fold least potent
Cc1ccc(-c2ccc(-c3coc(N/N=C\c4cnc5ccc(F)cn45)n3)cc2)cc1 [4f, (Z)-2-(2-((6-fluoroimidazo[1,2-a]pyridin-3-yl)methylene)hydrazineyl)-4-(4'-methyl-[1,1'-biphenyl]-4-yl)oxazole] | three-fold least potent
Cc1ccccc1-c1coc(N/N=C\c2cnc3ccc(F)cn23)n1 [4p, (Z)-2-(2-((6-fluoroimidazo[1,2-a]pyridin-3-yl)methylene)hydrazineyl)-4-(o-tolyl)oxazole] | three-fold least potency
